Laboratory results reported in ChEMBL document CHEMBL1201862, “PubChem BioAssay data set” (2004).
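Assay format: 96-well plates, 48-hour exposure. GI50 is the concentration that inhibits growth by half.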 The source made the active and inactive calls. Rule as the data show it: active = GI50 up to about 1.1 µM and inactive = higher.

Legend:
Experiment in all cases: NCI anticancer screen, dose series, 48 h
A498 = system: A498
ACHN = system: ACHN
BT-549 = system: BT-549
DU-145 = system: DU-145
HL-60 = system: HL-60
Hs-578T = system: Hs-578T
M14 = system: M14
MDA-MB-231 = system: MDA-MB-231
MDA-MB-435 = system: MDA-MB-435
NCI/ADR-RES = system: NCI/ADR-RES
PC-3 = system: PC-3
SK-MEL-28 = system: SK-MEL-28
SR = system: SR
T47D = system: T47D
TK-10 = system: TK-10
MCF7 = system: MCF7
SF-539 = system: SF-539
KM-20L2 = system: KM-20L2
LXFL 529 = system: LXFL 529

Structure (SMILES)	GI50 (A498)	GI50 (ACHN)	GI50 (BT-549)	GI50 (DU-145)	GI50 (HL-60)	GI50 (Hs-578T)	GI50 (M14)	GI50 (MDA-MB-231)	GI50 (MDA-MB-435)	GI50 (NCI/ADR-RES)	GI50 (PC-3)	GI50 (SK-MEL-28)	GI50 (SR)	GI50 (T47D)	GI50 (TK-10)	GI50 (MCF7)	GI50 (SF-539)	GI50 (KM-20L2)	GI50 (LXFL 529)
COc1ccc(CCCC(=O)O)c(C)c1	14.3 µM (inactive)	35.1 µM (inactive)	84.9 µM (inactive)	21.1 µM (inactive)	37.5 µM (inactive)	43.5 µM (inactive)	92.9 µM (inactive)	36.1 µM (inactive)	32.8 µM (inactive)	> 100 µM (inactive)	37.9 µM (inactive)	91.4 µM (inactive)	9.48 µM (inactive)	50.8 µM (inactive)	81.8 µM (inactive)				
c1ccc(CSC(SCc2ccccc2)c2cccc3ccccc23)cc1	> 10 µM (inactive)	> 10 µM (inactive)		> 10 µM (inactive)	> 10 µM (inactive)	> 10 µM (inactive)	> 10 µM (inactive)	> 10 µM (inactive)	> 10 µM (inactive)	> 10 µM (inactive)	> 10 µM (inactive)	> 10 µM (inactive)	> 10 µM (inactive)	9.73 µM (inactive)	> 10 µM (inactive)	> 10 µM (inactive)	> 10 µM (inactive)		
O=C(NC(COC(=O)C(Cc1ccccc1)NC(=O)c1ccccc1)Cc1ccccc1)c1ccccc1 (centres undefined)	> 50 µM (inactive)	> 50 µM (inactive)			> 50 µM (inactive)	> 50 µM (inactive)	> 50 µM (inactive)		> 50 µM (inactive)		> 50 µM (inactive)	> 50 µM (inactive)	> 50 µM (inactive)		> 50 µM (inactive)	> 50 µM (inactive)	> 50 µM (inactive)		
COC1/C=C/C(C)C(C(C)C(OC)C(C)CCC(=O)C(C)C(C/C=C/N(C)C=O)OC)OC(=O)/C=C/C=C(\C)CC(OC)CC2=CC(=O)O[C@H](C2)C(C)C(OC)CC(OC)/C=C/C(C)C(OC)C1 (some centres undefined)			0.0108 µM (active)	0.191 µM (active)		0.0158 µM (active)			0.0286 µM (active)	0.0107 µM (active)	0.00989 µM (active)	0.00875 µM (active)	< 0.005 µM (active)			0.0292 µM (active)			
Cc1cn(Cc2cnnn2CC2OC(n3cc(C)c(=O)[nH]c3=O)CC2O)c(=O)[nH]c1=O (centres undefined)	> 100 µM (inactive)	> 100 µM (inactive)	> 100 µM (inactive)	> 100 µM (inactive)		> 100 µM (inactive)	> 100 µM (inactive)	> 100 µM (inactive)	> 100 µM (inactive)	> 100 µM (inactive)	> 100 µM (inactive)	> 100 µM (inactive)		> 100 µM (inactive)	> 100 µM (inactive)	> 100 µM (inactive)	> 100 µM (inactive)		
Cc1cc(N(CCC#N)S(=O)(=O)c2ccccc2)ccc1/C=N\c1cccc(C(=O)O)c1		> 100 µM (inactive)			> 100 µM (inactive)		> 100 µM (inactive)					> 100 µM (inactive)			> 100 µM (inactive)		> 100 µM (inactive)	> 100 µM (inactive)	> 100 µM (inactive)
O=c1c(-c2ccccc2)c(SCCCN2CCCCC2)n(-c2ccccc2)c(=S)n1-c1ccccc1	15.1 µM (inactive)	17.4 µM (inactive)	18 µM (inactive)	17.7 µM (inactive)	16.6 µM (inactive)	34.2 µM (inactive)		14.5 µM (inactive)	17.7 µM (inactive)	16.5 µM (inactive)	16.5 µM (inactive)	16.9 µM (inactive)	16.2 µM (inactive)		16.9 µM (inactive)	15.6 µM (inactive)	15.7 µM (inactive)		
FC(F)(F)C(C1=NC(C(F)(F)F)(C(F)(F)F)N=C(N2CCOCC2)O1)C(F)(F)F		17.4 µM (inactive)	17.9 µM (inactive)	35.5 µM (inactive)	5.57 µM (inactive)	32.4 µM (inactive)	18.8 µM (inactive)	14.4 µM (inactive)	15.3 µM (inactive)	16.6 µM (inactive)	16.9 µM (inactive)	20.1 µM (inactive)	18.8 µM (inactive)	23.4 µM (inactive)	28.7 µM (inactive)	> 10 µM (inactive)	22.4 µM (inactive)		
CCOC(=O)CSc1c(C(=O)OCC)c(=O)n(-c2ccccc2)c(=S)n1-c1ccccc1		36 µM (inactive)	8.49 µM (inactive)	82 µM (inactive)	17.1 µM (inactive)	33 µM (inactive)	> 100 µM (inactive)		41.6 µM (inactive)	2.99 µM (inactive)	4.61 µM (inactive)	> 100 µM (inactive)	13.7 µM (inactive)	> 100 µM (inactive)	> 100 µM (inactive)	15.2 µM (inactive)			
COc1ccc(NCC(=O)Nn2c(-c3ccccc3)nc3ccccc3c2=O)cc1	23.3 µM (inactive)	38.4 µM (inactive)	23.3 µM (inactive)	> 100 µM (inactive)	42.3 µM (inactive)	28.1 µM (inactive)	41.3 µM (inactive)	19 µM (inactive)	51.8 µM (inactive)	25.2 µM (inactive)	35.6 µM (inactive)	74.5 µM (inactive)	35.8 µM (inactive)	29.9 µM (inactive)	> 100 µM (inactive)	18.2 µM (inactive)	39.2 µM (inactive)		
O=c1c2c3c(sc2nc(CN2CCNCC2)n1-c1ccccc1)CCCC3	> 100 µM (inactive)	> 100 µM (inactive)	> 100 µM (inactive)	> 100 µM (inactive)	> 100 µM (inactive)	> 100 µM (inactive)	> 100 µM (inactive)	> 100 µM (inactive)		> 100 µM (inactive)	> 100 µM (inactive)	> 100 µM (inactive)	> 100 µM (inactive)	99.5 µM (inactive)	> 100 µM (inactive)	> 100 µM (inactive)			
CC(=O)OCC1OC(n2c(-c3ccc(Cl)cc3)cc(-c3ccccc3)c(C#N)c2=S)C(OC(C)=O)C(OC(C)=O)C1OC(C)=O (centres undefined)		13.5 µM (inactive)	5.01 µM (inactive)	15.7 µM (inactive)	3.18 µM (inactive)	2.71 µM (inactive)	4.98 µM (inactive)	4.33 µM (inactive)	12.7 µM (inactive)	6.71 µM (inactive)	11.3 µM (inactive)	6.5 µM (inactive)	10.7 µM (inactive)	18.7 µM (inactive)	27.4 µM (inactive)	17.3 µM (inactive)	3.99 µM (inactive)		
CN(C)c1ccc(C2SCC(=O)N2NS(=O)(=O)c2cccc(C(=O)O)c2)cc1 (centres undefined)		> 100 µM (inactive)	> 100 µM (inactive)	> 100 µM (inactive)	16.3 µM (inactive)	> 100 µM (inactive)	> 100 µM (inactive)	> 100 µM (inactive)	> 100 µM (inactive)		> 100 µM (inactive)	97.7 µM (inactive)		> 100 µM (inactive)	> 100 µM (inactive)	64.9 µM (inactive)	46.3 µM (inactive)		
CC1(C)COC2C(N(Cc3ccccc3)Cc3ccccc3)C(=O)N21 (centres undefined)	48.8 µM (inactive)	35.6 µM (inactive)			22.3 µM (inactive)		23.1 µM (inactive)					42.3 µM (inactive)	19.1 µM (inactive)		37.2 µM (inactive)		25.9 µM (inactive)	37.1 µM (inactive)	51.3 µM (inactive)
CN(C)c1n/c(=N/c2ccc(/N=c3\nc(N(C)C)ss3)cc2)ss1	33 µM (inactive)	36.9 µM (inactive)			12.4 µM (inactive)		12.9 µM (inactive)					16.8 µM (inactive)	6.01 µM (inactive)		24.2 µM (inactive)		35.4 µM (inactive)	48.3 µM (inactive)	> 33.5 µM (inactive)
N#Cc1c(-c2ccccc2)cn(C(=O)c2ccccc2)c1N		> 100 µM (inactive)		> 100 µM (inactive)	> 100 µM (inactive)	> 100 µM (inactive)	> 100 µM (inactive)	> 100 µM (inactive)	> 100 µM (inactive)	> 100 µM (inactive)	> 100 µM (inactive)	> 100 µM (inactive)	> 100 µM (inactive)		> 100 µM (inactive)	> 100 µM (inactive)			
CCOC(=O)Nc1ccc(S(=O)(=O)NCCCl)cc1.CCOC(=O)Nc1ccc(S(=O)(=O)NCCCl)cc1.O=C(O)c1ccc(/N=N/Cl)cc1O	> 100 µM (inactive)	> 100 µM (inactive)			> 100 µM (inactive)		> 100 µM (inactive)					> 100 µM (inactive)	> 100 µM (inactive)		> 100 µM (inactive)		> 100 µM (inactive)	> 100 µM (inactive)	> 100 µM (inactive)
C=CCNC(=S)N/N=C1\C(=O)Nc2ccc([N+](=O)[O-])cc21	21.1 µM (inactive)	23.3 µM (inactive)	52.4 µM (inactive)	31.4 µM (inactive)	54.7 µM (inactive)	> 100 µM (inactive)	62.1 µM (inactive)	> 100 µM (inactive)	89.3 µM (inactive)	17.7 µM (inactive)	> 100 µM (inactive)	> 100 µM (inactive)	10.3 µM (inactive)	25.5 µM (inactive)	26.4 µM (inactive)	36.1 µM (inactive)	> 100 µM (inactive)		
CC1(C)CCc2c(ccc(C(=O)/C=C/c3ccc(O)cc3)c2O)O1 [DORSMANNIN A]	13.7 µM (inactive)	10.7 µM (inactive)	12.2 µM (inactive)	9.25 µM (inactive)	19.7 µM (inactive)	14.1 µM (inactive)	10.9 µM (inactive)	9.25 µM (inactive)	10.3 µM (inactive)	11.4 µM (inactive)	8.57 µM (inactive)	0.201 µM (active)	11.9 µM (inactive)	1.56 µM (inactive)	10.3 µM (inactive)	14.2 µM (inactive)	11.9 µM (inactive)		
